Source: PubChem BioAssay (NCI)
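Cells were grown in 96-well plates and exposed to each compound for 48 hours at five concentrations; endpoints were interpolated linearly between bracketing concentrations, or set to the highest concentration if not reached. At the GI50, growth is halved. TGI marks complete inhibition of growth.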

How the values were obtained:
Assay in all cases: DTP human tumour cell line panel, 48 h; in the data active means GI50 below about 0.43 µM; inactive means the rest
[1] = system: U251 CNS
[2] = system: TK-10 renal
[3] = system: MALME-3M melanoma
[4] = system: CAKI-1 renal
[5] = system: NCI-H226 lung
[6] = system: T-47D breast
[7] = system: OVCAR-4 ovarian
[8] = system: MOLT-4 leukemia
[9] = system: BT-549 breast
[10] = system: 786-0 renal
[11] = system: KM12 colon
[12] = system: M14 melanoma
[13] = system: HL-60(TB) leukemia
[14] = system: NCI/ADR-RES ovarian
[15] = system: A498 renal
[16] = system: UACC-62 melanoma
[17] = system: COLO 205 colon
[18] = system: HS 578T breast
[19] = system: SF-539 CNS
[20] = system: SF-268 CNS
[21] = system: NCI-H522 lung
[22] = system: SN12C renal
[23] = system: SNB-19 CNS
[24] = system: SF-295 CNS
[25] = system: SK-OV-3 ovarian
[26] = system: RPMI-8226 leukemia
[27] = system: OVCAR-8 ovarian
[28] = system: EKVX NSCLC
[29] = system: HCT-116 colon
[30] = system: DU-145 prostate
[31] = system: NCI-H460 lung
[32] = system: HOP-62 NSCLC
[33] = system: MCF7 breast
[34] = system: CCRF-CEM leukemia
[35] = system: UO-31 renal
[36] = system: MDA-MB-435
[37] = system: NCI-H23 lung
[38] = system: ACHN renal
[39] = system: OVCAR-3 ovarian
[40] = system: SK-MEL-28 melanoma
[41] = system: K-562 leukemia
[42] = system: OVCAR-5 ovarian
[43] = system: PC-3 prostate
[44] = system: HT29 colon
[45] = system: RXF 393 renal
[46] = system: IGROV1 ovarian
[47] = system: A549 NSCLC
[48] = system: SW-620 colon
[49] = system: HCT-15 colon
[50] = system: UACC-257 melanoma
[51] = system: SR leukemia
[52] = system: SK-MEL-2 melanoma
[53] = system: LOX IMVI melanoma
[54] = system: MDA-MB-231 breast
[55] = system: SK-MEL-5 melanoma
[56] = system: HOP-92 NSCLC
[57] = system: SNB-75 CNS

COc1ccc(-c2ccc(C3CC(c4ccc(O)cc4)=NN3)o2)c([N+](=O)[O-])c1 (stereo unspecified)
95.9 µM: TGI [11]
81.8 µM: TGI [31]
36.3 µM: TGI [41]
97.6 µM: TGI [44]
> 100 µM: TGI [1] | TGI [2] | TGI [4] | TGI [5] | TGI [6] | TGI [9] | TGI [10] | TGI [12] | TGI [14] | TGI [15] | TGI [16] | TGI [18] | TGI [20] | TGI [21] | TGI [22] | TGI [23] | TGI [24] | TGI [25] | TGI [27] | TGI [28] | TGI [29] | TGI [30] | TGI [32] | TGI [34] | TGI [35] | TGI [36] | TGI [37] | TGI [38] | TGI [39] | TGI [40] | TGI [42] | TGI [43] | TGI [45] | TGI [46] | TGI [48] | TGI [49]
97.5 µM: TGI [19]
82.7 µM: TGI [17]
74.4 µM: TGI [33]
84 µM: TGI [47]
51.3 µM: TGI [3]
inactive: GI50 [1] 19 µM | GI50 [2] 40.1 µM | GI50 [3] 19.1 µM | GI50 [4] 34.4 µM | GI50 [5] 36.4 µM | GI50 [6] 75 µM | GI50 [7] 50.2 µM | GI50 [8] 5.14 µM | GI50 [9] 32.8 µM | GI50 [10] 45.1 µM | GI50 [11] 24.5 µM | GI50 [12] 36.1 µM | GI50 [13] 13 µM | GI50 [14] 38.5 µM | GI50 [15] 30.4 µM | GI50 [16] 33.1 µM | GI50 [17] 27.2 µM | GI50 [18] 34.7 µM | GI50 [19] 27.4 µM | GI50 [20] 22.3 µM | GI50 [21] 39 µM | GI50 [22] 30.8 µM | GI50 [23] 82.6 µM | GI50 [24] 29.9 µM | GI50 [25] 19.8 µM | GI50 [26] 11.6 µM | GI50 [27] 42.8 µM | GI50 [28] 43 µM | GI50 [29] 20.1 µM | GI50 [30] 29.4 µM | GI50 [31] 21.1 µM | GI50 [32] 34 µM | GI50 [33] 24.4 µM | GI50 [34] 4.84 µM | GI50 [35] 50.3 µM | GI50 [36] 30 µM | GI50 [37] 42.5 µM | GI50 [38] 42 µM | GI50 [39] 24.1 µM | GI50 [40] 45.8 µM | GI50 [41] 13.9 µM | GI50 [42] > 100 µM | GI50 [43] 25.9 µM | GI50 [44] 40.1 µM | GI50 [45] 23.7 µM | GI50 [46] 84.9 µM | GI50 [47] 25.7 µM | GI50 [48] 37.3 µM | GI50 [49] 35.4 µM
38.8 µM: TGI [13]
71.9 µM: TGI [26]
29.9 µM: TGI [8]
96.6 µM: TGI [7]

Nc1ccccc1C#CC#Cc1ccccc1N
29.9 µM: TGI [32]
17.9 µM: TGI [55]
24.8 µM: TGI [29]
67.7 µM: TGI [45]
51.7 µM: TGI [52]
inactive: GI50 [1] 8.53 µM | GI50 [2] 12.5 µM | GI50 [50] 4.56 µM | GI50 [3] 35.2 µM | GI50 [4] 1.36 µM | GI50 [6] > 100 µM | GI50 [7] 23.7 µM | GI50 [8] 16.3 µM | GI50 [9] 20.5 µM | GI50 [10] 13.2 µM | GI50 [11] 8.46 µM | GI50 [12] 7.34 µM | GI50 [13] 3.97 µM | GI50 [14] 4.63 µM | GI50 [16] 11.8 µM | GI50 [17] 22.5 µM | GI50 [21] 11.5 µM | GI50 [52] 21.7 µM | GI50 [22] 14.7 µM | GI50 [23] > 100 µM | GI50 [24] 2.76 µM | GI50 [25] 58 µM | GI50 [26] 8.08 µM | GI50 [27] 28.7 µM | GI50 [29] 6.02 µM | GI50 [31] 11.8 µM | GI50 [32] 15.9 µM | GI50 [35] 8 µM | GI50 [36] 4.6 µM | GI50 [53] 6.78 µM | GI50 [37] 4.04 µM | GI50 [38] 10.6 µM | GI50 [39] 2.85 µM | GI50 [40] 48 µM | GI50 [54] 10.9 µM | GI50 [41] 5.78 µM | GI50 [43] 23.1 µM | GI50 [55] 4.36 µM | GI50 [44] 20.6 µM | GI50 [45] 25.6 µM | GI50 [46] 18.6 µM | GI50 [47] 13.8 µM | GI50 [48] 15.7 µM | GI50 [56] 1.37 µM | GI50 [49] 11.4 µM | GI50 [57] 32.3 µM
31.4 µM: TGI [22]
87.4 µM: TGI [47]
25.5 µM: TGI [49]
28.4 µM: TGI [31]
96.7 µM: TGI [56]
19.4 µM: TGI [53]
29.7 µM: TGI [14]
> 100 µM: TGI [6] | TGI [7] | TGI [8] | TGI [13] | TGI [23] | TGI [24] | TGI [25] | TGI [26] | TGI [27] | TGI [35] | TGI [40] | TGI [41] | TGI [43] | TGI [44] | TGI [57]
35.3 µM: TGI [48]
32.9 µM: TGI [2]
22.9 µM: TGI [38]
27 µM: TGI [10]
22 µM: TGI [37]
38.6 µM: TGI [21]
24.5 µM: TGI [50] | TGI [54]
69.8 µM: TGI [51]
86.2 µM: TGI [46]
31.3 µM: TGI [36]
21 µM: TGI [1]
75.7 µM: TGI [17]
18.7 µM: TGI [4]
49 µM: TGI [9]
25.3 µM: TGI [16]
61.3 µM: TGI [3]
65.8 µM: TGI [12]
36.2 µM: TGI [11]
36.3 µM: TGI [39]

OC(c1cc2cc(Br)ccc2c2cc(Br)ccc12)C1CCCCN1 (stereo unspecified)
3.13 µM: TGI [42]
inactive: GI50 [4] 1.76 µM | GI50 [13] 1.75 µM | GI50 [30] 1.95 µM | GI50 [35] 1.46 µM | GI50 [42] 1.58 µM | GI50 [56] 1.21 µM
3.18 µM: TGI [35]
3.43 µM: TGI [13] | TGI [30]
3.54 µM: TGI [4]
2.67 µM: TGI [56]

COc1ccc2nc3cc(Cl)ccc3c(NCCCNCc3cc(OC)c(OC)c(OC)c3)c2c1
3.24 µM: TGI [36]
> 100 µM: TGI [34]
3.11 µM: TGI [42]
